Reference: patent US20260215426A1, “HERBICIDAL COMPOSITIONS” (SYNGENTA CROP PROTECTION AG, priority 2022, published 2026)

Assays:
Format in all cases: in vivo
[1] = tested on: Echinochloa crus-galli (ECHCG); assay: Post-emergence glasshouse efficacy against Echinochloa crus-galli; conditions: 4 true leaves, 14 days
Source text: (§1) When active ingredients are combined, the activity to be expected (E) for any given active ingredient combination obeys the so-called Colby Formula and can be calculated as follows (Colby, S. R., Calculating synergistic and antagonistic responses of herbicide combination, Weeds, Vol. 15, pages 20-22; 1967): • ppm=milligrams of active ingredient (a.i.) per liter • X=% action by first active ingredient using p ppm of the active ingredient • Y=% action by second active ingredient sing q ppm of the active ingredient.
(§2) According to Colby, the expected action of active ingredients A+B using p+q ppm of active ingredient is represented by the following formula: […]
(§3) If the action actually observed (O) is greater than the expected action E then the action of the combination is super-additive, i.e. there is a synergistic effect. In mathematical terms, synergism corresponds to a positive value for the difference of (O-E). In the case of purely complementary addition of activities (expected activity), said difference (O-E) is zero. A negative value of said difference (O-E) signals a loss of activity compared to the expected activity.
(§4) Seeds of a variety of test species are sown in standard soil in pots (Echinochloa crus-galli (ECHCG), Conyza canadensis (ERICA), Amaranthus palmeri (AMAPA), Alopecurus myosuroides (ALOMY), Lolium perenne (LOLPE), and Setaria faberi (SETFA)), and cultivated under controlled conditions in a glasshouse (at 24/16° C., day/night; 14 hours light; 65% humidity), the plants are sprayed with an aqueous spray solution derived from the dissolution of the test compound or composition in acetone and IF50 (11.12% Emulsogen EL360 TM+44.44% N-methylpyrrolidone+44.44% Dowanol DPM glycol ether) which was then diluted to the required concentration using 0.2% Genapol XO80 (CAS No. 9043-30-5) in water as the diluent. Test compounds or compositions are applied at the rates stated. The test plants are then grown in a glasshouse under controlled conditions in a glasshouse (at 24/16° C., day/night; 14 hours light; 65% humidity) and watered twice daily. After 14 days, the test is evaluated for the percentage damage caused to the plant (100=total damage to plant; 0=no damage to plant), and the result are shown below in table B1 to B6.

[2] = tested on: Conyza canadensis (ERICA); assay: Post-emergence glasshouse efficacy against Conyza canadensis; conditions: 8 cm rosette, 14 days
Source text: as §1, §2, §3, §4

[3] = tested on: Amaranthus palmeri (AMAPA); assay: Post-emergence glasshouse efficacy against Amaranthus palmeri; conditions: 7-8 true leaves, 14 days
Source text: as §1, §2, §3, §4

[4] = tested on: Alopecurus myosuroides (ALOMY); assay: Post-emergence glasshouse efficacy against Alopecurus myosuroides; conditions: 14 days
Source text: as §1, §2, §3, §4

Lolium perenne (LOLPE) = assay: Post-emergence glasshouse efficacy against Lolium perenne; conditions: 14 days
Source text: as §1, §2, §3, §4

Setaria faberi (SETFA) = assay: Post-emergence glasshouse efficacy against Setaria faberi; conditions: 14 days, alone 3.75 g/Ha
Source text: as §1, §2
as §3, with “activity. […]” for “activity.”

CCOC(=O)C1(C)CC(c2cc(-n3c(=O)cc(C(F)(F)F)n(C)c3=O)c(F)cc2Cl)=NO1 (stereo not drawn) [Compound (Ia)]
inhibition at 1.875 g/ha ([1]; Echinochloa crus-galli, 336 h, alone 1.875 g/Ha, read-out: Observed Activity (%)): 6.7% | inhibition at 3.75 g/ha ([1]; Echinochloa crus-galli, 336 h, alone 3.75 g/Ha, read-out: Observed Activity (%)): 29.3% | inhibition at 7.5 g/ha ([1]; Echinochloa crus-galli, 336 h, alone 7.5 g/Ha, read-out: Observed Activity (%)): 73.3% | inhibition at 1.875 g/ha ([2]; Erigeron canadensis, 336 h, alone 1.875 g/Ha, read-out: Observed Activity (%)): 20% | inhibition at 3.75 g/ha ([2]; Erigeron canadensis, 336 h, alone 3.75 g/Ha, read-out: Observed Activity (%)): 21.7% | inhibition at 7.5 g/ha ([2]; Erigeron canadensis, 336 h, alone 7.5 g/Ha, read-out: Observed Activity (%)): 48.3% | inhibition at 0.9375 g/ha ([3]; Amaranthus palmeri, 336 h, alone 0.9375 g/Ha, read-out: Observed Activity (%)): 0% | inhibition at 1.875 g/ha ([3]; Amaranthus palmeri, 336 h, alone 1.875 g/Ha, read-out: Observed Activity (%)): 0% | inhibition at 3.75 g/ha ([3]; Amaranthus palmeri, 336 h, alone 3.75 g/Ha, read-out: Observed Activity (%)): 36.7% | inhibition at 30 g/ha ([4]; Alopecurus myosuroides, 336 h, alone 30.0 g/Ha, read-out: Observed Activity (%)): 67.5% | inhibition at 60 g/ha ([4]; Alopecurus myosuroides, 336 h, alone 60.0 g/Ha, read-out: Observed Activity (%)): 97.5% | inhibition at 3.75 g/ha (Lolium perenne (LOLPE); Lolium perenne, 336 h, alone 3.75 g/Ha, read-out: Observed Activity (%)): 12.5% | inhibition at 7.5 g/ha (Lolium perenne (LOLPE); Lolium perenne, 336 h, alone 7.5 g/Ha, read-out: Observed Activity (%)): 42.5% | inhibition at 15 g/ha (Lolium perenne (LOLPE); Lolium perenne, 336 h, alone 15.0 g/Ha, read-out: Observed Activity (%)): 50% | inhibition at 30 g/ha (Lolium perenne (LOLPE); Lolium perenne, 336 h, alone 30.0 g/Ha, read-out: Observed Activity (%)): 93.5% | inhibition at 3.75 g/ha (Setaria faberi (SETFA); Setaria faberi, 336 h, read-out: Observed Activity (%)): 67.5%

bicyclopyrone
Observed Activity (%) ([1]; alone 3.75 g/Ha): 21.7% | Observed Activity (%) ([1]; alone 7.5 g/Ha): 46.7% | Observed Activity (%) ([1]; alone 15.0 g/Ha): 56.7% | Observed Activity (%) ([1]; alone 30.0 g/Ha): 61.7% | Observed Activity (%) ([1]; alone 60.0 g/Ha): 63.3% | Observed Activity (%) ([2]; alone 15.0 g/Ha): 65.0% | Observed Activity (%) ([2]; alone 30.0 g/Ha): 71.7% | Observed Activity (%) ([2]; alone 60.0 g/Ha): 70.0% | Observed Activity (%) ([3]; alone 3.75 g/Ha): 0.0% | Observed Activity (%) ([3]; alone 7.5 g/Ha): 30.0% | Observed Activity (%) ([3]; alone 15.0 g/Ha): 45.0% | Observed Activity (%) ([3]; alone 30.0 g/Ha): 18.3% | Observed Activity (%) ([4]; alone 7.5 g/Ha): 47.5% | Observed Activity (%) ([4]; alone 15.0 g/Ha): 60.0% | Observed Activity (%) ([4]; alone 30.0 g/Ha): 60.0% | Observed Activity (%) (Lolium perenne (LOLPE); alone 3.75 g/Ha): 0.0% | Observed Activity (%) (Lolium perenne (LOLPE); alone 7.5 g/Ha): 10.0% | Observed Activity (%) (Lolium perenne (LOLPE); alone 15.0 g/Ha): 25.0% | Observed Activity (%) (Lolium perenne (LOLPE); alone 30.0 g/Ha): 47.5% | Observed Activity (%) (Setaria faberi (SETFA)): 22.5%
